Laboratory results from patent publication US20070190523A1 (priority 2002, published 2007).
Like-named read-outs stand apart in the source and are kept apart here.

How the values were obtained:
[1] = target: recombinant HIV-1 protease (Human immunodeficiency virus type 1 group M subtype B, UniProt P04585); test: biochemical; assay type: biochemical; conditions: Ki (nM)
48V54V82S = test: microbe, parasite or virus in culture; design: species or system HIV; conditions: Human immunodeficiency virus 1, read-out: Cell-based assay (MT-4) EC50/nM 48V54V82S
84V90M [2] = target: T1, 84V90M (Human immunodeficiency virus type 1 group M subtype B, UniProt P04585, I572V/L578M); test: biochemical; assay type: biochemical, HIV
48V54V82A = test: microbe, parasite or virus in culture; assay type: cell-based, HIV
WT [3] = target: T2, WT (Human immunodeficiency virus type 1 group M subtype B, UniProt P04585); test: cell-based; design: species or system HIV
84V90M [4] = target: T1, 84V90M; test: cell-based; design: species or system HIV
WT [5] = target: T2, WT; test: biochemical; design: species or system HIV
48V82A90M = test: microbe, parasite or virus in culture; design: species or system HIV; conditions: Human immunodeficiency virus 1, read-out: Cell-based assay (MT-4) EC50/nM 48V82A90M
46I50V = test: microbe, parasite or virus in culture; assay type: cell-based, HIV
30N82I88D = test: microbe, parasite or virus in culture; assay type: cell-based, HIV
84V90M [6] = target: T1, 84V90M; test: Cell-based assay (MT-4) EC50, 84V90M; design: species or system HIV-1
[7] = tested on: recombinant HIV-1 strains with resistance mutations in the protease gene; test: Cross-Resistance Profile Assay, whole panel; assay type: cell-based
WT [8] = tested on: WT; design: species or system HIV-1; conditions: read-out: Cell-based assay (MT-4) EC50/nM WT
[9] = tested on: recombinant HIV-1 10I/48V/71V/82A/90M; test: Cross-Resistance Profile Assay; assay type: cell-based
[10] = tested on: recombinant HIV-1 10F/46I/71V/82T/90M; test: Cross-Resistance Profile Assay; assay type: cell-based
[11] = tested on: recombinant HIV-1 46I/47V/50V; test: Cross-Resistance Profile Assay; assay type: cell-based
[12] = tested on: recombinant HIV-1 46I/84A; test: Cross-Resistance Profile Assay; assay type: cell-based
[13] = tested on: recombinant HIV-1 10R/46I/82T/84V; test: Cross-Resistance Profile Assay; assay type: cell-based
[14] = tested on: recombinant HIV-1 48V/54V/71V/82S; test: Cross-Resistance Profile Assay; assay type: cell-based
[15] = tested on: recombinant HIV-1 10I/84V/71V/73S/90M; test: Cross-Resistance Profile Assay; assay type: cell-based
84V90M [16] = target: T1, 84V90M; assay type: biochemical, HIV-1; conditions: 84V90M enzyme; read-out: Enzymatic assay 84V90M IC50/nM
[17] = tested on: recombinant HIV-1 10I/48V/54V/82A; test: Cross-Resistance Profile Assay; assay type: cell-based
[18] = tested on: recombinant HIV-1 30N/50S/82I/88D; test: Cross-Resistance Profile Assay; assay type: cell-based
[19] = tested on: recombinant HIV-1 54V/71V/82S; test: Cross-Resistance Profile Assay; assay type: cell-based
[20] = tested on: mutant HIV-1 with I84V/L90M mutations; assay type: cell-based; conditions: fold difference in EC50 vs wild type, class symbols

**Q.** Which results are given for `CCOP(=O)(CCCNC(=O)c1cccc(CN2C(=O)N(Cc3ccc(O)cc3)C(Cc3ccccc3)C(O)C(O)C2Cc2ccccc2)c1)OCC` (stereo not shown)?
**A.** Ki [1]: 0.009 nM; EC50 (48V54V82S): 75 nM; IC50 (84V90M [2]): 12 nM; EC50 (48V54V82A; Human immunodeficiency virus 1, read-out: Cell-based assay (MT-4) EC50/nM 48V54V82A): 80 nM; EC50 (WT [3]): 65 nM; EC50 (84V90M [4]): 311 nM; IC50 (WT [5]): 1.1 nM; EC50 (48V82A90M): 74 nM; EC50 (46I50V; Human immunodeficiency virus 1, read-out: Cell-based assay (MT-4) EC50/nM 46I50V): 85 nM; EC50 (30N82I88D; Human immunodeficiency virus 1, read-out: Cell-based assay (MT-4) EC50/nM 30N82I88D): 74 nM

**Q.** For `O=C1N(Cc2ccccc2)C(Cc2ccccc2)C(O)C(O)C(Cc2ccc(OCP(=O)(OCc3ccccc3)OCc3ccccc3)cc2)N1Cc1ccccc1` (stereo not shown), which EC50 (84V90M [6]) is on record?
**A.** > 6000 nM

**Q.** With `CCCCOC(=O)C(C)NP(=O)(COc1ccc(CC(NC(=O)OC2COC3OCCC23)C(O)CN(CC(C)C)S(=O)(=O)c2ccc(OC)cc2)cc1)NC(C)C(=O)OCCCC` (stereo not shown) [GS-16503] as the compound, how does the “increase of conversion to acid metabolites at 1 μM vs. 10 μM” value (MT-2 cells) read?
**A.** 3 fold

**Q.** What about the “Total No. of Resistant Viruses” value ([7]; resistance = 5-fold and higher change in EC50 relative to wild type, 11 mutant viruses) of the same compound?
**A.** 0

**Q.** For `O=C1N(Cc2ccccc2)C(Cc2ccccc2)C(O)C(O)C(Cc2ccc(O)cc2)N1Cc1ccccc1` (stereo not shown) [H / Ph / OH], which EC50 (WT [8]) is on record?
**A.** 1260 nM

**Q.** How did the “Fold Change in EC50 Relative to WT HIV-1” value [9] turn out when `Cc1cccc(C)c1OCC(=O)N[C@@H](Cc1ccccc1)[C@@H](O)C[C@H](Cc1ccccc1)NC(=O)[C@H](C(C)C)N1CCCNC1=O` [Lopinavir] was run?
**A.** 4.5 fold

**Q.** And the “Fold Change in EC50 Relative to WT HIV-1” value [10]?
**A.** 7.5 fold

**Q.** And the “Fold Change in EC50 Relative to WT HIV-1” value [11]?
**A.** 19 fold

**Q.** And the “Fold Change in EC50 Relative to WT HIV-1” value [12]?
**A.** 9 fold

**Q.** What about the “Fold Change in EC50 Relative to WT HIV-1” value [13] of the same compound?
**A.** 11 fold

**Q.** What about the “Fold Change in EC50 Relative to WT HIV-1” value [14] of the same compound?
**A.** 60 fold

**Q.** What about the “Fold Change in EC50 Relative to WT HIV-1” value [15] of the same compound?
**A.** 11 fold

**Q.** And the “Total No. of Resistant Viruses” value ([7]; {})?
**A.** 6

**Q.** Which EC50 (48V54V82A; MT-4, 48V54V82A, read-out: Cell-based assay (MT-4) EC50/nM 48V54V82A) does the source give for `CCOP(=O)(COCCCN1C(=O)N(Cc2ccc3[nH]nc(N)c3c2)C(Cc2ccccc2)C(O)C(O)C1Cc1ccccc1)OCC` (stereo not shown) [OCH2PO3Et2] here?
**A.** 175 nM

**Q.** And the EC50 (WT [3]; MT-4, WT, read-out: Cell-based assay (MT-4) EC50/nM WT)?
**A.** 356 nM

**Q.** What about the EC50 (46I50V; MT-4, 46I50V, read-out: Cell-based assay (MT-4) EC50/nM 46I50V) of the same compound?
**A.** 138 nM

**Q.** And the EC50 (30N82I88D; MT-4, 30N82I88D, read-out: Cell-based assay (MT-4) EC50/nM 30N82I88D)?
**A.** 145 nM

**Q.** How did the IC50 (84V90M [16]) turn out when `CCOP(=O)(CCNC(=O)Oc1ccc(CC2C(O)C(O)C(Cc3ccc(OC)cc3)N(Cc3cccc(N)c3)C(=O)N2Cc2cccc(N)c2)cc1)OCC` (stereo not shown) [OCH3 / Ph-mNH2 / OCONH(CH2)2PO3Et2] was run?
**A.** 116 nM

**Q.** What about the EC50 (84V90M [6]) of the same compound?
**A.** 2260 nM

**Q.** How did the EC50 (84V90M [6]) turn out when `CCOP(=O)(CCNC(=O)Oc1ccc(CC2C(O)C(O)C(Cc3ccc(OC)cc3)N(Cc3ccc(O)cc3)C(=O)N2Cc2ccc(O)cc2)cc1)OCC` (stereo not shown) [OCH3 / Ph-pOH / OCONH(CH2)2PO3Et2] was run?
**A.** 495 nM

**Q.** Which “Fold Change in EC50 Relative to WT HIV-1” value [17] does the source give for `CCC[C@@]1(CCc2ccccc2)CC(O)=C([C@H](CC)c2cccc(NS(=O)(=O)c3ccc(C(F)(F)F)cn3)c2)C(=O)O1` [Tipranavir] here?
**A.** 0.4 fold

**Q.** What about the “Fold Change in EC50 Relative to WT HIV-1” value [9] of the same compound?
**A.** 0.3 fold

**Q.** And the “Fold Change in EC50 Relative to WT HIV-1” value [10]?
**A.** 3 fold

**Q.** What about the “Fold Change in EC50 Relative to WT HIV-1” value [11] of the same compound?
**A.** 0.5 fold

**Q.** And the “Fold Change in EC50 Relative to WT HIV-1” value [12]?
**A.** 1 fold

**Q.** What about the “Fold Change in EC50 Relative to WT HIV-1” value [13] of the same compound?
**A.** 5 fold

**Q.** What about the “Fold Change in EC50 Relative to WT HIV-1” value [18] of the same compound?
**A.** 0.5 fold

**Q.** What about the “Fold Change in EC50 Relative to WT HIV-1” value [19] of the same compound?
**A.** 3.5 fold

**Q.** And the “Fold Change in EC50 Relative to WT HIV-1” value [14]?
**A.** 2 fold

**Q.** What about the I84V/L90M fold change [20] of the same compound?
**A.** + (>3 to ≦10)

**Q.** What about the “Total No. of Resistant Viruses” value ([7]; {}) of the same compound?
**A.** 1
